The values that follow are results of earlier work, collected in US20210177818A1, “Antibacterial Formulation for Treating and Prophylactic use in Bacterial, and Fungal Urinary Bladder Infections” (priority 2019, published 2021).

For this data set the following is noted: in acetone, acetic acid, or ethanol.

Take `CCCCCCCCCCCCCCCC[n+]1ccccc1` [Cetylpyridinium chloride, 1-hexa-decyl pyridinium chloride]: the solubility entry is given as “insoluble”.
